Converted amounts (≈) assume the structure as drawn.
Columns and labels:
[1] = system: intracellular amastigotes of the Y strain; assay: Amastigote count in infected NRK cells; assay type: cell-based, Trypanosoma cruzi; settings: hybrid at trypomastigote IC50 for the Y strain, 48 h, compared to untreated infected cells
Description: Not only the genetic diversity among strains should be taken into account while searching for new drugs. Differential susceptibility of the different life cycle stages of the parasite within the same strain [18] should be also considered. In this regard, Bz and Nf effectiveness against axenic epimastigotes and the intracellular stages of T. cruzi have been already reported. […] More importantly, given that in the chronic phase of Chagas disease, current chemotherapy is not efficient and that parasitemia is usually low, performing new drug screenings on the intracellular replicative stage of the parasite appears to be the better approach. To confirm their anti-parasitic activity, nine of the hybrids were evaluated against intracellular amastigotes of the Y strain at the IC50 found for trypomastigotes of the same strain. Briefly, trypomastigotes were incubated with NRK cells and left to infect for two hours. […] Forty-eight hours post infection, cells were fixed and stained, and amastigotes/100 cells were calculated.
Infections were performed as previously described. […] After 48 h of incubation, cells were fixed with 4% formalin, stained with DAPI and photographed in a fluorescence microscope (Olympus). The amastigotes/100 cells were determined counting 1000 cells from each well (3000 cells/compound) using the ImageJ cell counter plugin. […]

[2] = system: T. cruzi Y (DTU II) trypomastigotes; assay: Trypomastigote IC50 estimation, Y strain; assay type: cell-based, Trypanosoma cruzi; settings: 24 h incubation; for IC50: Trypanosoma cruzi, 24 h
Method: (§1) The NRK and Vero cell lines were routinely maintained in DMEM (Gibco) supplemented with 10% SFB (Natocor) and Penicillin/Streptomicin (100 Units/0.1mg/mL, Sigma) at 37 °C and 5% CO2 atmosphere. The trypomatigotes of T. cruzi strains CL Brener, Y, and RA were routinely maintained in Vero cells cultured in DMEM supplemented with 4% SFB and Penicillin/Streptomicin. The trypomastigotes of each strain were purified from infected Vero cells supernatants and used in the different assays.
(§2) 2 × 10^6/mL trypomastigotes were incubated with different concentrations of the hybrids, control drug or vehicle, by triplicate at 37 °C and 5% CO2 for 24 h. Next, trypomastigotes were counted in a Neubauer chamber. The IC50 ± SD (n = 3) were estimated using the “Dose–Response” module in Graphpad Prism.

T. brucei = system: T. brucei; design: method as in PMID 23816880; settings: compared with the commercial drug suramin; cited from earlier work
[3] = system: T. cruzi CL Brener trypomastigotes; assay: Trypomastigote IC50 estimation, CL Brener strain; assay type: cell-based, Trypanosoma cruzi; settings: for IC50: Trypanosoma cruzi, 24 h; for IC50 / T. cruzi CL Brener IC50: trypomastigotes, 24 h incubation, IC50 ± SD (n = 3); for Selectivity NRK/T. cruzi (SI): IC50NRK/IC50 parasite, CL Brener trypomastigotes
Method: as §1, §2

[4] = system: T. cruzi RA (DTU VI) trypomastigotes; assay: Trypomastigote IC50 estimation, RA strain; assay type: cell-based, Trypanosoma cruzi; settings: 24 h incubation; for IC50: Trypanosoma cruzi, 24 h
Method: as §1, §2

[5] = system: trypomastigotes of the Y strain released from infected NRK cells; assay: Trypomastigote release assay; assay type: cell-based, Trypanosoma cruzi; settings: 72 hours of treatment then drug-free medium, vs non-treated control
Description: To fully eliminate the intracellular parasite, a trypanocidal drug action is ideally desired. For trypanostatic drugs, a longer chemotherapy is required to allow the elimination of the intracellular parasite, since the anti-parasitic effect could be reversed upon removal of the drug. In order to characterize the antiparasitic features of the hybrids, our strategy was to remove the hybrids from the medium of infected NRK cells and let the infection develop. In this approach, after the two hour infection of NRK cells with trypomastigotes of the Y strain, compounds were added and left for 72 hours before being replaced with fresh medium without drugs. Six days post infection, the trypomastigotes released to the supernatant were quantified. […]
NRK cells were cultured and treated as described in Section 4.1. […] At day 6 pi, the released trypomastigotes in the supernatant of infected were counted using a Neubauer chamber.
In all cases, 3 independent experiments were done by triplicate. […] The mean ± SD of amastigotes/100 cells or trypomastigote released were calculated and analyzed with one-way ANOVA with Dunnett posttest performed with Graphpad Prism software.

NRK cells = assay: NRK cell IC50 estimation (cytotoxicity, crystal violet); assay type: cell-based; settings: 48 h incubation; for IC50: Rattus norvegicus, NRK, 48 h
Method: as §1
1 × 10^5/mL NRK cells were grown overnight in a 96 multi-well plate. The culture medium was replaced by a culture medium containing increasing concentrations of hybrids, control drugs or vehicles, and cells incubated at 37 °C and 5% CO2 for 48 h. Next, cells were washed, fixed for 10 min with cold methanol (Sintorgan), and stained with violet crystal (Sigma 0.5% in methanol). After an exhaustive wash, cells were dried overnight. 10% acetic acid (Biopack) was added to each well, and the absorbance measured at 600 nm. Similarly, a standard curve was prepared (absorbance vs. increasing concentrations of NRK cells) to estimate the NRK IC50 using Graphpad Prism.

SMILES	Effect on intracellular amastigotes (amastigotes/100 cells) [1]	IC50 [2]	trypanocidal activity against T. brucei, IC50 (T. brucei)	IC50 [3]	IC50 [4]	Trypomastigote count in the supernatant of infected cells at day six post infection [5]	NRK Cells IC50 (NRK cells)	Selectivity NRK/T. cruzi (SI) [3]	T. cruzi CL Brener IC50 [3]	T. cruzi Y (DTU II) IC50 [2]	T. cruzi RA (DTU VI) IC50 [4]	IC50 (NRK cells)
C=CC1CN2CCC1CC2C(O)c1cc(CCC(C)C2CCC3C4C(O)CC5CC(O)CCC5(C)C4CCC23C)nc2ccccc12 (stereo not drawn) [Hybrid 5f]	significant reduction in intracellular amastigotes	0.65 ± 0.07 µg/mL (≈ 1.01 µM)	in the same range as the commercial drug suramin	0.34 ± 0.03 µg/mL (≈ 0.53 µM)	0.31 ± 0.1 µg/mL (≈ 0.484 µM)	significantly lower than non-treated control	4.02 ± 0.55 µg/mL	–	–	–	–	–
C=CC1CN2CCC1CC2C(O)c1cc(CCC(C)C2CCC3C4CCC5CC(OC(C)=O)CCC5(C)C4CCC23C)nc2ccccc12 (stereo not drawn) [Hybrid 4g]	–	3.05 ± 0.71 µg/mL (≈ 4.57 µM)	–	–	1.1 ± 0.21 µg/mL (≈ 1.65 µM)	–	12.30 ± 0.81 µg/mL	9.46	1.30 ± 0.01 µg/mL	–	–	–
C=CC1CN2CCC1CC2C(O)c1cc(CCC(C)C2CCC3C4C(O)CC5CC(O)CCC5(C)C4CCC23C)nc2ccc(OC)cc12 (stereo not drawn) [Hybrid 5d]	–	–	in the same range as the commercial drug suramin	–	–	–	1.59 ± 0.54 µg/mL	3.98	0.40 ± 0.05 µg/mL	–	–	–
C=CC1CN2CCC1CC2C(O)c1cc(CCC(C)C2CCC3C4C(O)CC5CC(O)CCC5(C)C4CCC23C)nc2ccccc12 (stereo not drawn) [Hybrid 5h]	–	–	in the same range as the commercial drug suramin	–	–	–	0.67 ± 0.05 µg/mL	2.23	0.30 ± 0.00 µg/mL	–	–	–
C=CC1CN2CCC1CC2C(O)c1cc(CCC(C)C2CCC3C4C(OC(C)=O)CC5CC(OC(C)=O)CCC5(C)C4CCC23C)nc2ccccc12 (stereo not drawn) [Hybrid 4f]	significant reduction in intracellular amastigotes	–	in the same range as the commercial drug suramin	0.51 ± 0.06 µg/mL (≈ 0.703 µM)	–	significantly lower than non-treated control	–	13.04	–	0.50 ± 0.03 µg/mL	0.25 ± 0.10 µg/mL	6.69 ± 1.51 µg/mL (≈ 9.23 µM)
O=C(Cn1ccnc1[N+](=O)[O-])NCc1ccccc1 [Bz, benznidazole, reference compound]	–	≥ 15 µg/mL	–	2.5 ± 0.01 µg/mL (≈ 9.61 µM)	2.5 ± 0.32 µg/mL (≈ 9.61 µM)	–	–	–	–	–	–	–
C=CC1CN2CCC1CC2C(O)c1cc(CCC(C)C2CCC3C4C(O)CC5CC(O)CCC5(C)C4CCC23C)nc2ccc(OC)cc12 (stereo not drawn) [Hybrid 5b]	–	–	in the same range as the commercial drug suramin	–	–	–	5.10 ± 0.76 µg/mL	5.67	0.90 ± 0.10 µg/mL	–	–	–
C=CC1CN2CCC1CC2C(O)c1cc(CCC(C)C2CCC3C4C(OC(C)=O)CC5CC(OC(C)=O)CCC5(C)C4CCC23C)nc2ccc(OC)cc12 (stereo not drawn) [Hybrid 4b]	–	–	–	0.8 ± 0.13 µg/mL (≈ 1.06 µM)	–	–	–	4.89	–	–	–	3.91 ± 0.29 µg/mL (≈ 5.18 µM)
C=CC1CN2CCC1CC2C(O)c1cc(CCC(C)C2CCC3C4CCC5CC(O)CCC5(C)C4CCC23C)nc2ccccc12 (stereo not drawn) [Hybrid 5e]	–	–	–	3.96 ± 2.69 µg/mL (≈ 6.34 µM)	–	–	–	–	–	–	–	> 30 µg/mL
C=CC1CN2CCC1CC2C(O)c1cc(CCC(C)C2CCC3C4CCC5CC(OC(C)=O)CCC5(C)C4CCC23C)nc2ccccc12 (stereo not drawn) [Hybrid 4e]	–	–	–	1.16 ± 0.15 µg/mL (≈ 1.74 µM)	–	–	–	6.46	–	–	–	7.5 ± 0.29 µg/mL (≈ 11.2 µM)
C=CC1CN2CCC1CC2C(O)c1cc(CCC(C)C2CCC3C4CCC5CC(OC(C)=O)CCC5(C)C4CCC23C)nc2ccc(OC)cc12 (stereo not drawn) [Hybrid 4a]	–	–	–	–	–	–	1.41 ± 0.13 µg/mL	2.20	0.64 ± 0.15 µg/mL	–	–	–
C=CC1CN2CCC1CC2C(O)c1cc(CCC(C)C2CCC3C4C(OC(C)=O)CC5CC(OC(C)=O)CCC5(C)C4CCC23C)nc2ccccc12 (stereo not drawn) [Hybrid 4h]	–	–	in the same range as the commercial drug suramin	–	–	–	6.50 ± 0.28 µg/mL	9.28	0.70 ± 0.18 µg/mL	≥2.00 µg/mL	1.50 ± 0.50 µg/mL	–
C=CC1CN2CCC1CC2C(O)c1cc(CCC(C)C2CCC3C4CCC5CC(O)CCC5(C)C4CCC23C)nc2ccccc12 (stereo not drawn) [Hybrid 5g]	–	3.25 ± 0.67 µg/mL (≈ 5.2 µM)	–	–	3.03 ± 0.24 µg/mL (≈ 4.85 µM)	–	27.11 ± 4.54 µg/mL	10.58	2.56 ± 0.58 µg/mL	–	–	–
C=CC1CN2CCC1CC2C(O)c1cc(CCC(C)C2CCC3C4C(OC(C)=O)CC5CC(OC(C)=O)CCC5(C)C4CCC23C)nc2ccc(OC)cc12 (stereo not drawn) [Hybrid 4d]	–	–	in the same range as the commercial drug suramin	–	–	–	3.30 ± 0.08 µg/mL	4.58	0.72 ± 0.07 µg/mL	–	–	–
C=CC1CN2CCC1CC2C(O)c1cc(CCC(C)C2CCC3C4CCC5CC(O)CCC5(C)C4CCC23C)nc2ccc(OC)cc12 (stereo not drawn) [Hybrid 5c]	–	≥ 2 µg/mL	–	–	0.79 ± 0.19 µg/mL (≈ 1.21 µM)	–	–	–	0.78 ± 0.11 µg/mL	–	–	> 11 µg/mL
C=CC1CN2CCC1CC2C(O)c1cc(CCC(C)C2CCC3C4CCC5CC(OC(C)=O)CCC5(C)C4CCC23C)nc2ccc(OC)cc12 (stereo not drawn) [Hybrid 4c]	–	≥ 1 µg/mL	–	1.08 ± 0.23 µg/mL (≈ 1.55 µM)	–	–	16.53 ± 0.18 µg/mL	15.30	–	–	–	–
C=CC1CN2CCC1CC2C(O)c1cc(CCC(C)C2CCC3C4CCC5CC(O)CCC5(C)C4CCC23C)nc2ccc(OC)cc12 (stereo not drawn) [Hybrid 5a]	–	–	–	–	–	–	15.30 ± 4.04 µg/mL	4.12	3.71 ± 0.13 µg/mL	–	–	–

Reference: article PMC6749325, “Hybrids of Cinchona Alkaloids and Bile Acids as Antiparasitic Agents Against Trypanosoma cruzi” (Molecules, 2019)
